Assay results reported in PubChem BioAssay (NCI).
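Dose response: 5 concentrations. Exposure: 48 h. Format: 96-well plates. Endpoint: linear interpolation; highest concentration if not reached. GI50: concentration for 50% inhibition of growth. TGI is the concentration that stops growth completely.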

Legend:
Assay in all cases: DTP human tumour cell line panel, 48 h
[1] = tested on: HL-60(TB) leukemia
[2] = tested on: HOP-62 NSCLC
[3] = tested on: MCF7 breast
[4] = tested on: NCI-H23 lung
[5] = tested on: NCI-H460 lung
[6] = tested on: NCI/ADR-RES ovarian
[7] = tested on: T-47D breast
[8] = tested on: TK-10 renal

| Structure (SMILES) | GI50 [1] [µM] | TGI [1] [µM] | GI50 [2] [µM] | TGI [2] [µM] | GI50 [3] [µM] | TGI [3] [µM] | GI50 [4] [µM] | TGI [4] [µM] | GI50 [5] [µM] | TGI [5] [µM] | GI50 [6] [µM] | TGI [6] [µM] | GI50 [7] [µM] | TGI [7] [µM] | GI50 [8] [µM] | TGI [8] [µM] |
| --- | --- | --- | --- | --- | --- | --- | --- | --- | --- | --- | --- | --- | --- | --- | --- | --- |
| CC(=O)/C(Br)=C/c1ccc(Br)o1 | 2.53 | 8.58 | 24.6 | 59.2 | 3.67 | 14.4 | 12.1 | 41.7 | 14.2 | 30.9 | 7.88 | 38.3 | 8.89 | 24.2 | 5.42 | 17.9 |
| O=C1C=C(OCC=C(C(F)(F)F)C(F)(F)F)c2ccccc2C1=O | 2.44 | 6.49 | 1.87 | 3.69 | 1.39 | 3.94 |  |  |  |  | 3.21 | 14.7 | 0.777 | 3.7 |  |  |
| CC(=O)Nc1ccc(S(=O)(=O)N=S(C)C)cc1 |  | > 100 |  | > 100 |  | > 100 |  | > 100 |  | > 100 |  | > 100 |  | > 100 |  | > 100 |
| Cc1ccc(Cl)c(NS(=O)(=O)c2ccc(-c3cnc(C4CC4)o3)cc2)c1 | 0.0451 |  | 0.268 | > 83.7 | 0.0407 | 25.9 | 0.365 | 62.8 | 0.102 | 20.4 | 0.0618 | 6.04 | 0.0481 | 67.9 | 16 | > 89.7 |
| COc1cc([N+](=O)[O-])c(S(=O)(=O)O)cc1-n1nc(C(=O)Nc2ccccc2)n[n+]1-c1cc(S(=O)(=O)[O-])c([N+](=O)[O-])cc1OC |  | > 100 |  | > 100 |  | > 100 |  | > 100 |  | > 100 |  | > 100 |  |  |  | > 100 |
| Oc1ccc2ccccc2c1C=NCc1c(O)ccc2ccccc12 |  |  |  | > 100 |  | > 100 |  | > 100 |  | > 100 |  | > 100 |  | > 100 |  | > 100 |
| [N-]=[N+]=NCCCn1c2c(c3ccc([N+](=O)[O-])cc3c1=O)C(=O)c1cc(-c3ccccc3)ccc1-2 |  |  | > 100 | > 100 | > 100 | > 100 | > 100 | > 100 | > 100 | > 100 | > 100 | > 100 | > 100 | > 100 | > 100 | > 100 |
| O=C(Nc1cc(Cl)cc(Cl)c1)c1cccc(NC2=C(Cl)C(=O)N(Cc3ccccc3)C2=O)c1 |  |  | 37.4 | > 100 | 21.7 | > 100 | 27.8 | > 100 | 33.2 | > 100 | 30.3 | > 100 | 66.5 | > 100 | 31.8 | > 100 |
| COc1cc2ncnc(Nc3ccc(Oc4ccnc(C)c4)c(C)c3)c2cc1NC(=O)CC1CCSS1 (configuration not stated) | 1.28 | 2.83 | 1.16 | 2.91 |  |  | 1.07 | 2.5 |  |  | 2.14 | > 50 |  |  | 0.896 | 1.84 |
| CCC(C)C1=C(O)[N+]2([O-])Oc3ccc(C4=C(O)C(=O)C(c5ccc(O)cc5)=C(O)C4=O)cc3OC2(C(C)CC)C(=O)N1O (configuration not stated) | 14.2 | 86.7 | 9.94 | > 100 | 4.25 | > 100 | 13.3 | > 100 | 4.26 | > 100 | 7.86 | > 100 |  |  | 3.41 | > 100 |
| CCCCCCCCCCCCN=C(N)c1ccc(N2CCN(c3ccc(C(N)=NCCCCCCCCCCCC)cc3)CC2)cc1 | 2.15 | > 50 | 6.96 | 14.6 |  |  | 6.2 | 15.1 | 13.8 | > 50 | 33.3 | > 50 | 10.6 | 21.3 | 13.2 | > 50 |
| CCOC(=O)c1c(C)nc2c(c1N)/C(=C/c1ccccn1)C(=O)N2Cc1ccccc1 | 1.61 | > 50 |  |  | 1.38 | 4.13 | 1.29 | 4.35 | 1.17 | 2.8 |  |  | 1.13 | 3.3 | 1.51 | > 50 |
| NC(Cc1c[nH]c2ccc([N+](=O)[O-])cc12)C(=O)O (configuration not stated) |  | > 100 |  | > 100 |  | > 100 |  | > 100 |  |  |  | > 100 |  | > 100 |  | > 100 |
| COc1cc2c3c(n(CCCNCCCNCCN)c(=O)c2cc1OC)-c1cc2c(cc1C3=O)OCO2 | 46.9 | > 100 |  |  | 32.5 | > 100 | 24.7 | 78.7 | > 100 | > 100 |  |  | 46.8 | > 100 | 53.7 | > 100 |
| NCCCNc1nc2ccccc2c2c(=O)c3cccc(Cl)c3sc12 |  |  |  |  |  |  | 1.4 | 2.85 |  |  | 1.71 | 3.25 |  |  | 2.31 | 3.95 |
| COCCc1n(Cc2ccc3ccccc3c2)c2ccccc2[n+]1Cc1ccc2ccccc2c1 |  |  | 1.26 | 2.73 |  |  |  |  |  |  | 11.2 | 53 |  |  | 1.26 | 2.65 |
